Test system: healthy adult examinees
Test: HRIPT (Human repeated insult patch tests), skin accumulated stimulus
Type: in vivo
Parameters: key to skin reactivity (ICDRG criteria): −: negative (no response); ±: doubtful or slight erythema, etc.; +: weak reaction (which is accompanied with no phlyctenule), erythema, papule; ++: severe reaction (which is accompanied with phylctenule), erythema, papule, phlyctenule; +++: strong reaction, bullae reaction
Conditions: for average reactivity: 9 patches, 15 examinees; for Number of examinees who exhibited ±, +, or ++ reactivity 1st: 1st patch; for Number of examinees who exhibited ±, +, or ++ reactivity 2nd: 2nd patch; for Number of examinees who exhibited ±, +, or ++ reactivity 3rd: 3rd patch; for Number of examinees who exhibited ±, +, or ++ reactivity 4th: 4th patch; for Number of examinees who exhibited ±, +, or ++ reactivity 5th: 5th patch; for Number of examinees who exhibited ±, +, or ++ reactivity 6th: 6th patch; for Number of examinees who exhibited ±, +, or ++ reactivity 7th: 7th patch; for Number of examinees who exhibited ±, +, or ++ reactivity 8th: 8th patch; for Number of examinees who exhibited ±, +, or ++ reactivity 9th: 9th patch
Description: HRIPT (Human repeated insult patch tests) was conducted in order to identify skin accumulated stimulus of quercetin3-O-[3-O″-(E)-p-coumaroyl][β-D-glucopyranosyl-(1→3)-O-α-L-rhamnopyranosyl-(1→6)-O-β-D-glucopyranoside] and quercetin3-O-[3-O″-(E)-p-coumaroyl][α-L-rhamnopyranosyl-(1→6)-O-β-D-glucopyranoside]and to calculate the concentration range that can be used in skin.
Specifically, 15 healthy adult examinees were randomly selected, and test compositions in which the compounds were respectively comprised in an amount of 0.5 wt. %, 1 wt. %, and 3 wt. % (the compositions for skin, comprising an emulsifying agent, a stabilizer, purified water, etc. in addition to the compounds) were dropped in the amount of 20 μl per chamber (IQ chamber, Epitest Ltd, Finland), and patched on the right site of the upper back of the examinees, and then, after 24 hours, the patch was replaced with a new patch. A total of 9 patches were conducted, three times a week for total 3 weeks, in such manner, the skin reactions before and after patch were examined every time, and the skin reactions until 48 hours after removing the final patch were observed, and the average reactivity was observed.
The skin reaction was determined according to the criteria of International Contact Dermatitis Research Group (ICDRG). In the above table, “New Material 31” refers to quercetin3-O-[3-O″-(E)-p-coumaroyl][β-D-glucopyranosyl-(1→3)-O-α-L-rhamnopyranosyl-(1→6)-O-β-D-glucopyranoside], and “New Material 32” refers to quercetin3-O-[3-O″-(E)-p-coumaroyl][α-L-rhamnopyranosyl-(1→6)-O-β-D-glucopyranoside].

## C[C@@H]1O[C@@H](OC[C@H]2O[C@@H](Oc3c(-c4ccc(O)c(O)c4)oc4cc(O)cc(O)c4c3=O)[C@H](O)[C@@H](OC(=O)/C=C/c3ccc(O)cc3)[C@@H]2O)[C@H](O)[C@H](O[C@@H]2O[C@H](CO)[C@@H](O)[C@H](O)[C@H]2O)[C@H]1O [New Material 31, quercetin3-O-[3-O″-(E)-p-coumaroyl][β-D-glucopyranosyl-(1→3)-O-α-L-rhamnopyranosyl-(1→6)-O-β-D-glucopyranoside]]
0.5 wt.% in test composition
  average reactivity: 0
0.5 wt.%, 1 wt.% and 3 wt.%, 9 patches in 3 weeks
  skin reactivity (ICDRG criteria): −
0.5 wt.%, line 1 of 3 (±)
  Number of examinees who exhibited ±, +, or ++ reactivity 1st: 0 number
  Number of examinees who exhibited ±, +, or ++ reactivity 2nd: 0 number
  Number of examinees who exhibited ±, +, or ++ reactivity 3rd: 0 number
  Number of examinees who exhibited ±, +, or ++ reactivity 4th: 0 number
  Number of examinees who exhibited ±, +, or ++ reactivity 5th: 0 number
  Number of examinees who exhibited ±, +, or ++ reactivity 6th: 0 number
  Number of examinees who exhibited ±, +, or ++ reactivity 7th: 0 number
  Number of examinees who exhibited ±, +, or ++ reactivity 8th: 0 number
  Number of examinees who exhibited ±, +, or ++ reactivity 9th: 0 number
0.5 wt.%, line 2 of 3 (+)
  Number of examinees who exhibited ±, +, or ++ reactivity 1st: 0 number
  Number of examinees who exhibited ±, +, or ++ reactivity 2nd: 0 number
  Number of examinees who exhibited ±, +, or ++ reactivity 3rd: 0 number
  Number of examinees who exhibited ±, +, or ++ reactivity 4th: 0 number
  Number of examinees who exhibited ±, +, or ++ reactivity 5th: 0 number
  Number of examinees who exhibited ±, +, or ++ reactivity 6th: 0 number
  Number of examinees who exhibited ±, +, or ++ reactivity 7th: 0 number
  Number of examinees who exhibited ±, +, or ++ reactivity 8th: 0 number
  Number of examinees who exhibited ±, +, or ++ reactivity 9th: 0 number
0.5 wt.%, line 3 of 3 (++)
  Number of examinees who exhibited ±, +, or ++ reactivity 1st: 0 number
  Number of examinees who exhibited ±, +, or ++ reactivity 2nd: 0 number
  Number of examinees who exhibited ±, +, or ++ reactivity 3rd: 0 number
  Number of examinees who exhibited ±, +, or ++ reactivity 4th: 0 number
  Number of examinees who exhibited ±, +, or ++ reactivity 5th: 0 number
  Number of examinees who exhibited ±, +, or ++ reactivity 6th: 0 number
  Number of examinees who exhibited ±, +, or ++ reactivity 7th: 0 number
  Number of examinees who exhibited ±, +, or ++ reactivity 8th: 0 number
  Number of examinees who exhibited ±, +, or ++ reactivity 9th: 0 number
1 wt.% in test composition
  average reactivity: 0
1 wt.%, line 1 of 3 (±)
  Number of examinees who exhibited ±, +, or ++ reactivity 1st: 0 number
  Number of examinees who exhibited ±, +, or ++ reactivity 2nd: 0 number
  Number of examinees who exhibited ±, +, or ++ reactivity 3rd: 0 number
  Number of examinees who exhibited ±, +, or ++ reactivity 4th: 0 number
  Number of examinees who exhibited ±, +, or ++ reactivity 5th: 0 number
  Number of examinees who exhibited ±, +, or ++ reactivity 6th: 0 number
  Number of examinees who exhibited ±, +, or ++ reactivity 7th: 0 number
  Number of examinees who exhibited ±, +, or ++ reactivity 8th: 0 number
  Number of examinees who exhibited ±, +, or ++ reactivity 9th: 0 number
1 wt.%, line 2 of 3 (+)
  Number of examinees who exhibited ±, +, or ++ reactivity 1st: 0 number
  Number of examinees who exhibited ±, +, or ++ reactivity 2nd: 0 number
  Number of examinees who exhibited ±, +, or ++ reactivity 3rd: 0 number
  Number of examinees who exhibited ±, +, or ++ reactivity 4th: 0 number
  Number of examinees who exhibited ±, +, or ++ reactivity 5th: 0 number
  Number of examinees who exhibited ±, +, or ++ reactivity 6th: 0 number
  Number of examinees who exhibited ±, +, or ++ reactivity 7th: 0 number
  Number of examinees who exhibited ±, +, or ++ reactivity 8th: 0 number
  Number of examinees who exhibited ±, +, or ++ reactivity 9th: 0 number
1 wt.%, line 3 of 3 (++)
  Number of examinees who exhibited ±, +, or ++ reactivity 1st: 0 number
  Number of examinees who exhibited ±, +, or ++ reactivity 2nd: 0 number
  Number of examinees who exhibited ±, +, or ++ reactivity 3rd: 0 number
  Number of examinees who exhibited ±, +, or ++ reactivity 4th: 0 number
  Number of examinees who exhibited ±, +, or ++ reactivity 5th: 0 number
  Number of examinees who exhibited ±, +, or ++ reactivity 6th: 0 number
  Number of examinees who exhibited ±, +, or ++ reactivity 7th: 0 number
  Number of examinees who exhibited ±, +, or ++ reactivity 8th: 0 number
  Number of examinees who exhibited ±, +, or ++ reactivity 9th: 0 number
3 wt.% in test composition
  average reactivity: 0
3 wt.%, line 1 of 3 (±)
  Number of examinees who exhibited ±, +, or ++ reactivity 1st: 0 number
  Number of examinees who exhibited ±, +, or ++ reactivity 2nd: 0 number
  Number of examinees who exhibited ±, +, or ++ reactivity 3rd: 0 number
  Number of examinees who exhibited ±, +, or ++ reactivity 4th: 0 number
  Number of examinees who exhibited ±, +, or ++ reactivity 5th: 0 number
  Number of examinees who exhibited ±, +, or ++ reactivity 6th: 0 number
  Number of examinees who exhibited ±, +, or ++ reactivity 7th: 0 number
  Number of examinees who exhibited ±, +, or ++ reactivity 8th: 0 number
  Number of examinees who exhibited ±, +, or ++ reactivity 9th: 0 number
3 wt.%, line 2 of 3 (+)
  Number of examinees who exhibited ±, +, or ++ reactivity 1st: 0 number
  Number of examinees who exhibited ±, +, or ++ reactivity 2nd: 0 number
  Number of examinees who exhibited ±, +, or ++ reactivity 3rd: 0 number
  Number of examinees who exhibited ±, +, or ++ reactivity 4th: 0 number
  Number of examinees who exhibited ±, +, or ++ reactivity 5th: 0 number
  Number of examinees who exhibited ±, +, or ++ reactivity 6th: 0 number
  Number of examinees who exhibited ±, +, or ++ reactivity 7th: 0 number
  Number of examinees who exhibited ±, +, or ++ reactivity 8th: 0 number
  Number of examinees who exhibited ±, +, or ++ reactivity 9th: 0 number
3 wt.%, line 3 of 3 (++)
  Number of examinees who exhibited ±, +, or ++ reactivity 1st: 0 number
  Number of examinees who exhibited ±, +, or ++ reactivity 2nd: 0 number
  Number of examinees who exhibited ±, +, or ++ reactivity 3rd: 0 number
  Number of examinees who exhibited ±, +, or ++ reactivity 4th: 0 number
  Number of examinees who exhibited ±, +, or ++ reactivity 5th: 0 number
  Number of examinees who exhibited ±, +, or ++ reactivity 6th: 0 number
  Number of examinees who exhibited ±, +, or ++ reactivity 7th: 0 number
  Number of examinees who exhibited ±, +, or ++ reactivity 8th: 0 number
  Number of examinees who exhibited ±, +, or ++ reactivity 9th: 0 number

— patent US11306117B2, “Whitening composition containing novel quercetin-based compound” (AMOREPACIFIC CORPORATION, priority 2017, dated 2022)
